US20090047235A1, “Paratransgenesis to Control Termites or Other Social Insects” (priority 2007, published 2009)

Assays:
Tetrahymena pyriformis = test: In vitro lytic peptide test on aerobic Tetrahymena pyriformis cultures; assay type: cell-based; conditions: 50 μM peptide, after 5-10 minutes
Procedure: The initial positive control for testing the efficacy of lytic peptide solutions was the aerobic, laboratory standard protozoan Tetrahymena pyriformis, cultures of which were purchased from Carolina Biological (#13-1182A) and maintained in proteose peptone media. Before each experiment, lytic peptide activity was tested using T. pyriformis.
(§1) Three protozoal species (Pseudotrichonympha grassii Koidzumi, Holomastigotoides hartmanni Koidzumi, and Spirotrichonympha leidyi Koidzumi) from the termite hindgut were maintained for 24 hrs in vitro, a sufficient time to allow testing of lytic peptides. The protozoa were removed from the termite hindgut in an anaerobic glove-box, and placed in sterile, sparged (Hydrogen 2.5%, Carbon dioxide 5% and Nitrogen 92.5%) Trager U (pH 7.0) saline solution. Positive controls for testing lytic peptides were established and validated with these cultures. The efficacy of the lytic peptides was then routinely tested prior to experiments to confirm both aerobic activity (using the “standard” T. pyriformis) and anaerobic activity (using cultures of the termite protozoa). One hundred percent mortality was observed after 5-10 minutes when any of these protozoa were treated with any one of three lytic peptides (hecate, melittin, or cecropin) at a 50 μM concentration, confirming the toxicity of the lytic peptides towards termite protozoa in an anaerobic environment that mimicked termite hindgut conditions.
The efficacy of each lytic peptide solution was confirmed using T. pyriformis and termite protozoa cultures in vitro before each microinjection test. A 5 ml overnight culture of T. pyriformis was washed three times in sterile 10 mM Tris-HCl (pH 7.4), and suspended in 1 ml 10 mM Tris-HCl (pH 7.4). Subsequently, 100 μl aliquots were placed in a Sigmacote™-treated, 96-well microplate. The lytic peptides were dissolved in 10 mM Tris-HCl. A range of concentrations (25-500 μM) of lytic peptide was added to each of several wells, and the remaining wells were treated with 10 mM Tris-HCl (pH 7.4) as control. […]

[1] = tested on: termite protozoa (Pseudotrichonympha grassii Koidzumi, Holomastigotoides hartmanni Koidzumi, Spirotrichonympha leidyi Koidzumi); test: In vitro lytic peptide test on anaerobic cultures of termite hindgut protozoa; assay type: cell-based; conditions: 50 μM peptide, after 5-10 minutes
Description: as §1
The efficacy of each lytic peptide solution was confirmed using T. pyriformis and termite protozoa cultures in vitro before each microinjection test. A 5 ml overnight culture of T. pyriformis was washed three times in sterile 10 mM Tris-HCl (pH 7.4), and suspended in 1 ml 10 mM Tris-HCl (pH 7.4). Subsequently, 100 μl aliquots were placed in a Sigmacote™-treated, 96-well microplate. The lytic peptides were dissolved in 10 mM Tris-HCl. A range of concentrations (25-500 μM) of lytic peptide was added to each of several wells, and the remaining wells were treated with 10 mM Tris-HCl (pH 7.4) as control. After confirming aerobic activity of the lytic peptide concentrations against T. pyriformis, lytic peptide efficacy was then tested against anaerobic cultures of termite protozoa. Sparged lytic peptide was added anaerobically to the sparged cultures of termite protozoa, and mortality was observed.

[2] = tested on: termite workers (gut protozoa); test: Defaunation of termites by feeding Metronidazole-treated filter paper; assay type: in vivo; conditions: for time to death of defaunated termites: Metronidazole feeding
Procedure: Using an aspirator, six groups of 100 termite workers each were collected and placed in Petri dishes containing damp filter paper. In addition, 10 soldiers were added to each group to enhance the overall survivorship rate. […] The remaining three groups of termites were transferred to Petri dishes containing paper that had been dampened with autoclaved tap water. All six replicates were transferred to an incubator and mortality was recorded every 24 hours. […] Once defaunation had been confirmed, all six groups were thereafter provided only with filter paper dampened with sterile tap water. Mortality was recorded each day. Statistically significant differences in mortality between treatment groups and control groups were established using 95% confidence intervals.

[3] = tested on: protozoa in the hindgut of termite workers; test: In vivo microinjection of lytic peptides into the termite hindgut; conditions: for relative effectiveness against protozoa in vivo among peptides tested: hindgut microinjection, 50 μM; for time to defaunation of injected termite workers: ~0.5 μl of 50 μM lytic peptide injected into hindgut
Description: A termite microinjection protocol was used to confirm directly the effect of lytic peptide in the hindgut. We first optimized the protocol by finding preferred conditions for each of the following: the time to immobilize a termite by cooling on ice; suitable methods for anchoring the termite in place for microinjection; and the maximum volume that could consistently be injected into the hindgut without causing direct trauma. Microinjection directly to the termite hindgut avoided the possibility of peptide degradation by non-specific protease activity in the foregut or midgut.
Termite workers were immobilized by chilling on ice for 1.5 min, and were then mechanically aspirated, head-first, into a modified pipette tip that had been trimmed to expose the terminus of the termite. This “termite holder” was attached to a micromanipulator, and the insect was advanced to insert a Sigmacote™-treated, fine glass needle into the anus of the termite. Lytic peptide or control solution was injected under the control of a high-speed, electronic foot pedal with pulse length control, to ensure that a constant volume was reproducibly injected into each insect. Approximately 0.5 μl of 10 mM Tris-HCl (pH 7.4) (control) or 0.5 μl of 50 μM lytic peptide dissolved in 10 mM Tris-HCl (pH 7.4) was injected into the hindgut of each termite. A second control group of non-injected termite workers was also included. The termites were housed in 3 cm Petri dishes, in which damp filter paper was provided. At 24, 48, and 72 hrs guts from randomly selected termites from each treatment were extirpated, and observations were made of the presence and motility of protozoa.

[4] = tested on: termite workers (gut protozoa); test: Termite feeding experiments with yeast expressing lytic peptide; assay type: in vivo; conditions: summary statement
Procedure: Lytic peptide-expressing and control Kluyveromyces lactis strains were used in termite feeding experiments. Aliquots of 2 ml YPGal in Sigmacote™-treated 15 ml Falcon tubes were inoculated with yeast, which were then grown for 3 days, with shaking at 225 rpm at 30° C. The strains grown were K. lactis engineered with the expression vector (control), K. lactis expressing the control protein MBP, and K. lactis expressing a lytic peptide gene (either hecate or hecate-GFP fusion). The cultures were washed three times with sterile, deionized water, and re-suspended in 500 μl sterile 10 mM galactose. Galactose was used because the coding sequences were under the control of the LAC4 promoter, a strong promoter whose activity is induced by galactose. Secretion of active lytic peptide by the transformed K. lactis into the growth media was verified using in vitro cultures of the protozoa T. pyriformis.
Termites were collected in New Orleans, La., and were maintained on damp cardboard in plastic buckets at room temperature. Only termites that had been held in the laboratory less than 4 weeks were used in the feeding experiments. […]
Termite mortality was recorded every three days. The number of viable termites was also recorded, as cannibalism in laboratory colonies has sometimes been observed. […]

[5] = tested on: termite symbiotic protozoa; conditions: preliminary data, poster 2002; cited from earlier work

Molecule | mortality of T. pyriformis (Tetrahymena pyriformis) | mortality of termite protozoa [1] | mortality of defaunated termites versus controls ([2]; 95% confidence intervals did not overlap) | time to death of defaunated termites [2] | time to death of defaunated termites ([2]; listed as metronidazole) | time to defaunation of termite workers ([2]; filter paper treated with 400 μL Metronidazole (2 g/L)) [days] | relative effectiveness against protozoa in vivo among peptides tested [3] | time to defaunation of injected termite workers [3] [h] | effect on protozoa in the termite gut [4] | time to death of the insect without protozoa [4] | killing of termite symbiotic protozoa in vitro [5]
cecropin | One hundred | One hundred |  |  |  |  |  |  |  |  | 
Cc1ncc([N+](=O)[O-])n1CCO [Metronidazole] |  |  | significantly higher mortality | six | six and about six | ≤ 7 |  |  |  |  | 
CC[C@H](C)[C@H](NC(=O)CN)C(=O)NCC(=O)N[C@@H](C)C(=O)N[C@H](C(=O)N[C@@H](CC(C)C)C(=O)N[C@@H](CCCCN)C(=O)N[C@H](C(=O)N[C@@H](CC(C)C)C(=O)N[C@H](C(=O)N[C@H](C(=O)NCC(=O)N[C@@H](CC(C)C)C(=O)N1CCC[C@H]1C(=O)N[C@@H](C)C(=O)N[C@@H](CC(C)C)C(=O)N[C@H](C(=O)N[C@@H](CO)C(=O)N[C@@H](Cc1c[nH]c2ccccc12)C(=O)N[C@H](C(=O)N[C@@H](CCCCN)C(=O)N[C@@H](CCCNC(=N)N)C(=O)N[C@@H](CCCCN)C(=O)N[C@@H](CCCNC(=N)N)C(=O)N[C@@H](CCC(N)=O)C(=O)N[C@@H](CCC(N)=O)C(N)=O)[C@@H](C)CC)[C@@H](C)CC)[C@@H](C)O)[C@@H](C)O)C(C)C)C(C)C [melittin] | One hundred | One hundred |  |  |  |  | more effective against protozoa in vivo | 72 |  |  | 
falalkalkk alkklkkalk kal (FALALKALKKALKKLKKALKKA; This is the designed peptide known as hecate.) | One hundred | One hundred |  |  |  |  | more effective against protozoa in vivo | 72 | kill all (or at least most) species of protozoa in the termite gut | about six | would kill termite symbiotic protozoa
